From patent US6908930B2, “4-substituted 7-AZA-indolin-2-ones and their use as protein kinase inhibitors” (Sugen, Inc., priority 1999, dated 2005) come the findings set out here.

By IC50 is commonly meant the point on the concentration scale where inhibition reaches its midpoint.

Where a name gives a salt, the structure may show the parent alone.

The target in one assay is T1, PDGFR (Homo sapiens, UniProt P09619).
T1 construct: expressed in transfected cells; host or cells: NIH3T3
In words: Assay for modulation of PDGFR activity (ELISA). The format is biochemical. The conditions noted are these: for IC50: read-out: bio PDGFR IC50. On the procedure:
Using the following reagents, supplies, and methods, the ability of the compounds of the invention to modulate the in vitro activity of the PDGFR can be readily determined in an enzyme-linked immunosorbent assay (ELISA).
Monoclonal anti-PDGFR antibody (28D4C10) is stored at −20° C. in 50 mL tubes prior to use.
Lysates from PDGFR-β expressing NIH3T3 cells are obtained and stored at −80° C. in 1 mL aliquots. PDGFR-β expression in eukaryotic cells is well known in the art. Lysates are prepared by the following method. Place carrier dishes in ice trays, and after cooling, remove the media and replace with ice cold PBS. Remove the PBS and repeat. […] Take up lysate with a pipettor and add to a 30 mL centrifuge tube on ice. Vortex the tubes for 30-60 seconds and then centrifuge for 10 minutes at 7000 rpm in a J-20 rotor which has been precooled to below 0° C. Recover the supernatants and combine them in a 250 mL tube and place on ice. Perform protein determination to measure the total quantity of protein per mL of solution. Aliquot the lysate into 1 mL fractions and store at −80° C.
Coat Corning 96 well ELISA plates with 0.5 μg per well 28D4C10 antibody in a volume of 100 μl PBS overnight, at 4° C. and remove unbound antibody, 28D4C10, from wells by inverting plate to remove liquid. Wash 1× with distilled H2O by filling wells. Pat the plate on a paper towel to remove excess liquid.
Add 150 μL of Blocking Buffer to each well. Incubate for 30 minutes at room temperature, with shaking and wash plate 3× with deionized water, then once with TBST. Pat plate on a paper towel to remove excess liquid and bubbles
Dilute lysate in PBS (10 mg lysate/100 μL PBS). Add 100 μL of diluted lysate to each well. Shake at room temperature for 60 min. Wash plate 3× with deionized water, then once with TBST. Pat plate on a paper towel to remove excess liquid and bubbles.
Add 80 μL Kinase Buffer to ELISA plate containing captured PDGFR.
Dilute drugs/extracts 1:10 (unless specified otherwise) in TBS+10% DMSO in 96-well polypropylene plates. (i.e., 10 μL compound+90 μL (TBS+10% DMSO)). Add 10 μL diluted drugs/extracts to ELISA plate. […] Incubate for 30 minutes while shaking at room temperature.
After 30 minutes stop reaction with addition of 10 μL of 200 mM EDTA pH 8.0 for 20 mM final in well. Wash 4× with deionized water, twice with TBST.
Incubate 30-45 minutes at room temperature, with shaking. Wash plate 3× with deionized water, then once with TBST. Pat plate on a paper towel to remove excess liquid and bubbles.
Incubate 30 minutes at room temperature with shaking. Wash plate 3× with deionized water, then once with TBST. Pat plate on a paper towel to remove excess liquid and bubbles.
Add 100 μL of ABTS/H2O2 solution to each well. Incubate 10 to 30 minutes while shaking. Remove any bubbles. If necessary stop reaction with the addition of 100 μL of 0.2M HCl per well
(§1) Read assay on Dynatech MR7000 ELISA reader.

For another assay, the target named is T2, EGFR (Homo sapiens, UniProt P00533).
T2 construct: A431 […] cell lysate is stored at −80° C; host or cells: A431 cell lysate
Kind of assay: Assay for modulation of EGFR activity (ELISA). In kind it is biochemical. The conditions noted are these: for IC50: read-out: bio EGFR IC50. On the procedure:
Using the following reagents, supplies, and method, the ability of compounds of the invention to modulate the in vitro activity of EGFR can be readily determined in an ELISA.
A431 […] cell lysate is stored at −80° C.
ATP/MnCl2 phosphorylation mix is prepared by adding 300 μL of 1.0 mM ATP and […] of 1M MnCl2 to 9.2 mL of dH2O and mixing. Ten mL of phosphorylation mix is enough for about 6 assay plates. Note that the mixture should be made fresh and kept on ice immediately before use, and that although the preferred ATP is fresh from powder stock, any remaining stock solution of ATP may be frozen at −20° C. in small aliquots to be used at a later time.
Coat Corning 96 well ELISA plates with 0.5 μg per well with SUMO1 in a volume of 100 μL PBS overnight, at 4° C. Remove unbound SUMO1 from wells by inverting plate to remove liquid. Wash 1× with distilled H2O by filling wells. Pat the plate on a paper towel to remove excess liquid.
Add 150 μL of Blocking Buffer to each well. Incubate for 30 minutes at room temperature, with shaking. Wash plate 3× with deionized water, then once with TBST. Pat plate on a paper towel to remove excess liquid and bubbles.
Dilute lysate in PBS (7 μg lysate/[…]) and add 100 μL of diluted lysate to each well. Shake at room temperature for 60 minutes. Wash 1× with distilled H2O by filling wells. Pat the plate on a paper towel to remove excess liquid.
Add 120 μL TBST to ELISA plate containing captured EGFR.
Dilute drugs/extracts 1:10 (unless specified otherwise) in TBST in 96-well polypropylene plates. (i.e., 10 μL compound+90 μL TBST). Add 13.5 μL diluted drugs/extracts to ELISA plate. […] Incubate for 30 minutes while shaking at room temperature.
Approximately 150 μL final volume in well with 3 uM ATP/5 mM MnCl2 final concentration in well. Incubate 5 minutes while shaking. Note that this is a timed event. It is critical that ATP/MnCl2 phosphorylates the receptor for only 5 minutes. It is best to add the ATP/MnCl2 with an automated 96 place pipettor workstation, then 5 minutes later stop the reaction with EDTA using the same workstation. Alternatively, addition can be performed using a 12 channel pipettor 1 row at a time, leaving 20 seconds between each row so that the reaction may be stopped with EDTA exactly 5 minutes later (this depends on the number of plates being phosphorylated in one batch). Shake between each addition.
[…] This is done using either the same work station as above, or the same timing method employed with the 12 channel pipettor. After the EDTA has been added, shake for 1 minute. Wash 4× with deionized water, twice with TBST.
Add 100 μL per well of anti-phosphotyrosine (1:3000 dilution in TBST). Incubate 30-45 minutes at room temperature, with shaking. Wash 1× with distilled H2O by filling wells. Pat the plate on a paper towel to remove excess liquid.
Incubate 30 minutes at room temperature, with shaking. Wash 1× with distilled H2O by filling wells. Pat the plate on a paper towel to remove excess liquid.
Add 100 μL of ABTS/H2O2 solution to each well. Incubate 5 to 10 minutes while shaking. Remove any bubbles. If necessary stop reaction with the addition of 100 μL of 0.2M HCl per well.
as §1
(In general: ELISA stands for enzyme-linked immunosorbent assay.)

T1 sequence (P09619 33-1106, species assumed): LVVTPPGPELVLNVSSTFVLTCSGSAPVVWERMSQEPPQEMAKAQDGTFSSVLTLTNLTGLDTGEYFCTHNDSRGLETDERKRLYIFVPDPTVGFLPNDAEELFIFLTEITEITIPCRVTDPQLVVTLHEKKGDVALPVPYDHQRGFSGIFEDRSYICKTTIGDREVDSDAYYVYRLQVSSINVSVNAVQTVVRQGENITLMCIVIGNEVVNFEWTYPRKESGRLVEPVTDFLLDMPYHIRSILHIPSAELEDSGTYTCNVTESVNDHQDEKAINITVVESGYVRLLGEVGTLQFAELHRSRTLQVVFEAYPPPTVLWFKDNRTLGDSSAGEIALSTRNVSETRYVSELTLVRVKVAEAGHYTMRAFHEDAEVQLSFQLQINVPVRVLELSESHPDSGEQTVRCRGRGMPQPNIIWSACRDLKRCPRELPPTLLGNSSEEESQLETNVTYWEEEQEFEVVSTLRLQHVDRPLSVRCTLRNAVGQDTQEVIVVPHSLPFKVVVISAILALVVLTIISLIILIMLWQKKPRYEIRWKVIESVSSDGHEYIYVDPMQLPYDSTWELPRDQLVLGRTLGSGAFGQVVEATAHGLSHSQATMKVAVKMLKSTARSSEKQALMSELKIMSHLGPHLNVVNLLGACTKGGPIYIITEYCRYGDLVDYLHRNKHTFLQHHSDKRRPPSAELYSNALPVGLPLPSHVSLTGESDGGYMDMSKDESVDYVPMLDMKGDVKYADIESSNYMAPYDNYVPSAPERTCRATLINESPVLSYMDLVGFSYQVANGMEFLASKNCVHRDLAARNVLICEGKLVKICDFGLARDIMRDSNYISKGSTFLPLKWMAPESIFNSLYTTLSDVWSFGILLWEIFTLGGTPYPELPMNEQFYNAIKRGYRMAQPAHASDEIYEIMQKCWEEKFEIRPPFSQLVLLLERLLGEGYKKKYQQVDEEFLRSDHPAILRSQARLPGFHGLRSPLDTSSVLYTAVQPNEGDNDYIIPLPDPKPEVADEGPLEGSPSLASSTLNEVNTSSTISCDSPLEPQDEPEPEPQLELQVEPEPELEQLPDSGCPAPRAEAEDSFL
T2 sequence (P00533 25-1210): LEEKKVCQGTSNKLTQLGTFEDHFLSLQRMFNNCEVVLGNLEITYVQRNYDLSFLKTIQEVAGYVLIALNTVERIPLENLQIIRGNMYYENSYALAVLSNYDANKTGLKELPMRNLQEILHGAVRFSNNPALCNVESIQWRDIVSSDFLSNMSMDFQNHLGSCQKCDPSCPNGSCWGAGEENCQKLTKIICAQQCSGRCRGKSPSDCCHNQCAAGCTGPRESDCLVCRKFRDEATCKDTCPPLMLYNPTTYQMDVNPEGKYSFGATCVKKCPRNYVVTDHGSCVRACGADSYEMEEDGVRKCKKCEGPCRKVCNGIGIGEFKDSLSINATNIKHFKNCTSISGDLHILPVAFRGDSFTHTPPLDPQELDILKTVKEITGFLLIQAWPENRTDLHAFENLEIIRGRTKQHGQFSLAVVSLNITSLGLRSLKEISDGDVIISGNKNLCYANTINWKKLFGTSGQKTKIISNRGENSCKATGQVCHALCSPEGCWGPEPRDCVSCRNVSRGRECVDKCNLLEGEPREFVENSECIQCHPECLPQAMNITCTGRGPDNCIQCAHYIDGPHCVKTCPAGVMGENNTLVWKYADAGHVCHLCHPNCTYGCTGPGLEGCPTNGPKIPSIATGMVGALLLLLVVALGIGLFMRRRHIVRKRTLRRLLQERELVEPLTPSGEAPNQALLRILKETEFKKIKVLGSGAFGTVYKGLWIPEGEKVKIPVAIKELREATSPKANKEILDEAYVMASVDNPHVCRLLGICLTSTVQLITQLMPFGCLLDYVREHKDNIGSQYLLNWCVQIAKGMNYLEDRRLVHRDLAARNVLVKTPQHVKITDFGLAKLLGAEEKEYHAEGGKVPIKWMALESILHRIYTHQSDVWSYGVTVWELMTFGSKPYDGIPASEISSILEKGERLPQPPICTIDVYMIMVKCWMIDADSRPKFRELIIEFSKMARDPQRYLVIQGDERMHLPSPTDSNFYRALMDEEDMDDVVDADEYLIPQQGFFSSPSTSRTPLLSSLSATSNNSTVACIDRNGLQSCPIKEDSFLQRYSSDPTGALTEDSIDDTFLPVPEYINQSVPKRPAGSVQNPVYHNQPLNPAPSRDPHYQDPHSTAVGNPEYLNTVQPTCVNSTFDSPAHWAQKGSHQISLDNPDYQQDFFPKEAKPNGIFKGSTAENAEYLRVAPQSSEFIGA

Turning to `Cc1cc(C(=O)NCCN2CCOCC2)[nH]c1C=C1C(=O)Nc2nccc(Nc3ccc(F)c(Cl)c3)c21` [Formula 3, 5-[4-(3-CHLORO-4-FLUORO-PHENYLAMINO)-2-OXO-1,2-DIHYDRO-PYRROLO[2,3-B]PYRIDIN-3-YLIDENEMETHYL]-4-METHYL-1H-PYRROLE-2-CARBOXYLIC ACID (2-MORPHOLIN-4-YL-ETHYL)-AMIDE], the 50% inhibitory concentration (IC50) at PDGFR was more than 100 µM; on EGFR, 0.51 µM.
With `Cc1cc(C(=O)NCCN2CCOCC2)[nH]c1C=C1C(=O)Nc2ncnc(Nc3ccc(F)c(Cl)c3)c21` [Formula 4, 5-[4-(3-CHLORO-4-FLUORO-PHENYLAMINO)-6-OXO-6,7-DIHYDRO-PYRROLO[2,3-D]PYRIMIDIN-5-YLIDENEMETHYL]-4-METHYL-1H-PYRROLE-2-CARBOXYLIC ACID (2-MORPHOLIN-4-YL-ETHYL)-AMIDE HYDROCHLORIDE], the IC50 on PDGFR is more than 100 µM.
As to `O=C1Nc2ncnc(N3CCCCC3)c2C1=Cc1ccc(C(=O)NCCN2CCOCC2)[nH]1` [Formula 5, 5-(6-OXO-4-PIPERIDIN-1-YL-6,7-DIHYDRO-PYRROLO[2,3-D]PYRIMIDIN-5-YLIDENEMETHYL)-1H-PYRROLE-2-CARBOXYLIC ACID (2-MORPHOLIN-4-YL-ETHYL)-AMIDE], the concentration for half-maximal inhibition (IC50) at PDGFR is more than 100 µM; at EGFR it was more than 20 µM.
Consider `Cc1cc(C(=O)NCCN2CCOCC2)[nH]c1C=C1C(=O)Nc2ncnc(Nc3ccc4c(ccn4Cc4ccccc4)c3)c21.Cl` [Formula 6, 5-[4-(1-BENZYL-1H-INDOL-5-YLAMINO)-6-OXO-6,7-DIHYDRO-PYRROLO[2,3-D]PYRIMIDIN-5-YLIDENEMETHYL]-4-METHYL-1H-PYRROLE-2-CARBOXYLIC ACID (2-MORPHOLIN-4-YL-ETHYL)-AMIDE HYDROCHLORIDE], for which the “effect on the activity of PDGFR (in words)” value on PDGFR (hydrochloride salt) is given as “relatively little effect on the activity of PDGFR”. Also, the values for the IC50 at PDGFR and on EGFR were more than 100 µM and 0.001 µM, respectively. The “inhibition of EGFR (in words)” value on EGFR (hydrochloride salt) is “inhibits EGFR at very low concentrations”.
Turning to `Cc1[nH]c(C=C2C(=O)Nc3ncnc(Nc4ccc(F)c(Cl)c4)c32)c(C)c1CCCN1CCOCC1` [Formula 7, 4-(3-CHLORO-4-FLUORO-PHENYLAMINO)-5-[3,5-DIMETHYL-4-(3-MORPHOLIN-4-YL-PROPYL)-1H-PYRROL-2-YLMETHYLENE]-5,7-DIHYDRO-PYRROLO[2,3-D]PYRIMIDIN-6-ONE HYDROCHLORIDE], the IC50 on PDGFR was determined as 86 µM; on EGFR, 0.16 µM.
The corresponding values for `Cc1nc[nH]c1C=C1C(=O)Nc2ncnc(Nc3ccc(F)c(Cl)c3)c21` [Formula 8] are 16.4 µM and 0.06 µM.
Take `Cc1cc(C)c(C=C2C(=O)Nc3ncnc(Nc4ccc(F)c(Cl)c4)c32)[nH]1` [Formula 9]: the IC50 on PDGFR is more than 100 µM; at EGFR it was 0.04 µM.
The matching figures for `Cc1cc(C(=O)NCCN2CCOCC2)[nH]c1C=C1C(=O)Nc2ncnc(N3CCN(C)CC3)c21` [Formula 10, 4-METHYL-5-[4-(4-METHYL-PIPERAZIN-1-YL)-6-OXO-6,7-DIHYDRO-PYRROLO[2,3-D]PYRIMIDIN-5-YLIDENEMETHYL]-1H-PYRROLE-2-CARBOXYLIC ACID (2-MORPHOLIN-4-YL-ETHYL)-AMIDE]: more than 100 µM and more than 20 µM.
The matching figures for `Cc1nc[nH]c1C=C1C(=O)Nc2ncnc(N3CCN(C)CC3)c21` [Formula 11]: 28.1 µM and more than 20 µM.
Take `O=C1Nc2ncnc(Nc3ccc4c(ccn4Cc4ccccc4)c3)c2C1=Cc1ccc(C(=O)NCCN2CCOCC2)[nH]1` [Formula 12, 5-[4-(1-BENZYL-1H-INDOL-5-YLAMINO)-6-OXO-6,7-DIHYDRO-PYRROLO[2,3-D]PYRIMIDIN-5-YLIDENEMETHYL]-1H-PYRROLE-2-CARBOXYLIC ACID (2-MORPHOLIN-4-YL-ETHYL)-AMIDE HYDROCHLORIDE]: the values for the IC50 on PDGFR and at EGFR were more than 100 µM and 0.004 µM, respectively.
The matching figures for `O=C1Nc2ncnc(N3CCOCC3)c2C1=Cc1ccc(C(=O)NCCN2CCOCC2)[nH]1` [Formula 13, 5-(4-MORPHOLIN-4-YL-6-OXO-6,7-DIHYDRO-PYRROLO[2,3-D]PYRIMIDIN-5-YLIDENEMETHYL)-1H-PYRROLE-2-CARBOXYLIC ACID (2-MORPHOLIN-4-YL-ETHYL)-AMIDE]: more than 100 µM and 19.1 µM.
The matching figures for `Cc1nc[nH]c1C=C1C(=O)Nc2ncnc(N3CCOCC3)c21` [Formula 14]: more than 100 µM and more than 20 µM.
Regarding `O=C1Nc2ncnc(Nc3ccc(F)c(Cl)c3)c2C1=Cc1ccc(C(=O)NCCN2CCOCC2)[nH]1` [Formula 15, 5-[4-(3-CHLORO-4-FLUORO-PHENYLAMINO)-6-OXO-6,7-DIHYDRO-PYRROLO[2,3-D]PYRIMIDIN-5-YLIDENEMETHYL]-1H-PYRROLE-2-CARBOXYLIC ACID (2-MORPHOLIN-4-YL-ETHYL)-AMIDE], the results for the half-maximal inhibitory concentration (IC50) at PDGFR and on EGFR were more than 100 µM and 0.02 µM, respectively.
In the case of `C#Cc1cccc(Nc2ncnc3c2C(=Cc2ccc(C(=O)NCCN4CCOCC4)[nH]2)C(=O)N3)c1` [Formula 16, 5-[4-(3-ETHYNYL-PHENYLAMINO)-6-OXO-6,7-DIHYDRO-PYRROLO[2,3-D]PYRIMIDIN-5-YLIDENEMETHYL]-1H-PYRROLE-2-CARBOXYLIC ACID (2-MORPHOLIN-4-YL-ETHYL)-AMIDE HYDROCHLORIDE], the IC50 was more than 20 µM on PDGFR and 0.1 µM at EGFR.
For the molecule `C#Cc1cccc(Nc2ncnc3c2C(=Cc2[nH]c(C(=O)NCCN4CCOCC4)cc2C)C(=O)N3)c1` [Formula 17, 5-[4-(3-ETHYNYL-PHENYLAMINO)-6-OXO-6,7-DIHYDRO-PYRROLO[2,3-D]PYRIMIDIN-5-YLIDENEMETHYL]-4-METHYL-1H-PYRROLE-2-CARBOXYLIC ACID (2-MORPHOLIN-4-YL-ETHYL)-AMIDE], the figures for the 50% inhibitory concentration (IC50) on PDGFR and at EGFR were more than 20 µM and 0.02 µM, respectively.
The corresponding values for `C#Cc1cccc(Nc2ncnc3c2C(=Cc2[nH]c(C)c(CCCN4CCOCC4)c2C)C(=O)N3)c1` [Formula 18] are 15.3 µM and 0.18 µM.
